Results published in ChEMBL document CHEMBL3507680, “University of Dundee, Gates Library screen for HepG2 cell viability”.

Test: Human HepG2 cell viability assay in 384 well format
Format: toxicity, cell-based
Parameters: dose 125 nL, time 70.5 hour; cytotoxicity at 70.5 h: concentration not given beside the values
Conditions: HepG2 cells, read-out: Inhibition

Structure (SMILES) | cytotoxicity at 70.5 h [%]
O=C1CC(c2ccccc2)C2(CCN(Cc3ccncc3)CC2)N1 (configuration not stated) | -12.7
CN(C)C(=O)[C@@H]1C[C@@H]2CCN(Cc3ccncc3)C[C@@H]2O1 | -11.6
O=C(Nc1cccnc1)[C@@H]1C[C@H]2OCC[C@H]2N(Cc2nccs2)C1 | -6.06
Cc1ccc(CN2C[C@@H](C(=O)Nc3cccnc3)C[C@H]3OCC[C@H]32)o1 | 21.9
CN(C)C(=O)COCC1CN(Cc2ccoc2)Cc2nnn(C)c21 (configuration not stated) | 15
Cn1nc(CN2CCCCC2)c2c1CN(C(=O)c1cccc(Cl)c1)C2 | 40.4
O=C1COC2(CCN(C(=O)[C@H]3CCCO3)CC2)CN1Cc1ccccn1 | 17.4
Cn1nc(CN2CCCCC2)c2c1CN(C(=O)c1ccccc1)C2 | 23.3
Cc1ccc(CNCC2Cn3nnc(-c4cnn(C)c4)c3CO2)o1 (configuration not stated) | 15.6
c1cc(-c2nnn3c2COC(CNCc2nccs2)C3)ccn1 (configuration not stated) | -0.24
Cn1cccc1C(=O)N1Cc2c(CN3CCCCC3)nn(C)c2C1 | 0.721
CS(=O)(=O)N1CCC(c2nnc3ccc(C(=O)NC4CCC4)cn23)C1 (configuration not stated) | 12.6
COC[C@@H]1CC[C@H]2[C@H](CCN2S(=O)(=O)c2cccc(F)c2)O1 | -5.66
CC(C)NC(=O)CC1CC2(CCN(S(C)(=O)=O)CC2)c2ccccc21 (configuration not stated) | 3.25
CCS(=O)(=O)N1CCC2(CC1)CC(CC(=O)NC1CC1)c1ccccc12 (configuration not stated) | 17.6
Cc1noc(C)c1CN1CCO[C@H]2CN(Cc3cccnc3)C[C@H]21 | -4.34
O=C(c1cocn1)N1C[C@H]2CCC[C@@]2(COCc2cccnc2)C1 | -1.51
COCCN1C[C@H]2[C@@H](C1)N(C(=O)CCc1ccccc1)CC[C@H]2OC | -10.6
COCCN1C[C@H]2[C@@H](C1)N(C(=O)c1cccc(OC)c1)CC[C@H]2OC | -2.65
CN1CC(=O)N(c2ccsc2)CC12CCN(C(=O)c1ccc[nH]1)C2 (configuration not stated) | 8.85
COCC1CN(Cc2ccccn2)Cc2nn(C)cc21 (configuration not stated) | -7.74
COC(=O)C1CCN(CC2(c3ccc(C)cn3)CCNCC2)CC1 | -2.35

Structure (SMILES) | cytotoxicity at 70.5 h [%]
CCN(C(C)=O)C1CCN(c2nccc(CCC(F)(F)F)n2)C1 (configuration not stated) | -22.6
Cc1ccc(-n2nc(C)c3c2NC(=O)CC3c2cnc(N)s2)cc1 (configuration not stated) | -0.62
Cc1c(C(=O)N2CCCC(C(=O)c3nccn3C)C2)c[nH]c(=O)c1C#N (configuration not stated) | -7.06
CCc1c(C(=O)N2CCN(C)[C@@H]3CS(=O)(=O)C[C@@H]32)[nH]c2ccccc12 | -0.756
O=C(N[C@@H]1CCN(C(=O)C2CCOCC2)C[C@H]1O)c1ccccn1 | -4.74
c1csc(CCNc2nc(-c3ccncc3)nc3c2CCNCC3)c1 | -6.1
O=C(CCn1cccn1)N1CC[C@@H](c2ccc3ccccc3c2)[C@H](O)C1 | 3.07
Cc1ncc(CN2CCC3(CCCN(CC4CCC4)C3)C2)cn1 (configuration not stated) | -4.13
CN1CCN(Cc2nnc(C3CCN(C(CO)CO)CC3)n2C)CC1 | -23.4
OCCc1cn(CC2CCCN(Cc3nccs3)C2)nn1 (configuration not stated) | 11.8
CN(C)C1(CNc2nccc(-c3cnn(C)c3)n2)CCSC1 (configuration not stated) | -0.261
COCCN1C(=O)[C@H]2CC[C@@H]1CN(C(=O)CCc1n[nH]c(C)c1C)C2 | -13.9
CCC[C@H]1CN(Cc2cscn2)C[C@@H]1NC(=O)C1(COC)CCC1 | -4.5
CCn1c(C2CCCN(S(=O)(=O)C3CC3)C2)nn(CCN(C)C)c1=O (configuration not stated) | 0.856
CC(C)CN(Cc1ccccn1)Cc1ccccc1OCC(=O)O | -9.42
CCC[C@H]1CN(S(=O)(=O)c2ccc(CC)s2)C[C@@H]1N | 18.1
Cc1ccc(-c2noc([C@H](N)CC(C)C)n2)nn1 | 7.92
NC(=O)c1ccc(-n2ccnc2C2CC2)cc1N1CCCC1 | -3.29
COCc1noc(-c2ccc(N3CCCCC3CCCO)nc2)n1 (configuration not stated) | -3.48
CCCn1c(C)c(CC(=O)N[C@H](C)C(=O)OC)c2c1CC(C)(C)CC2=O | -0.686
CCCc1nnc(C(=O)N(C)Cc2ccc(OC)cc2)o1 | -2.69
CN1CCC(c2n[nH]c(=O)n2CC2CCCCC2)CC1 | -8.59

Structure (SMILES) | cytotoxicity at 70.5 h [%]
Cn1ncc2c(NCCOCc3ccccc3)nc(C3CCCC3)nc21 | -3.35
C[C@H]1CC[C@H](C(=O)N2CCC(n3cc(C4(O)CCCC4)nn3)CC2)CC1 | -16.2
CSCCCNC(=O)C1CCC(=O)N(C2CCCC2)C1 (configuration not stated) | -3.06
O=C1CCCN1C1CCCN(CCn2cc(Cl)cn2)C1 (configuration not stated) | -26.9
O=C(CC1CCC1)N1CCCC(CO)(CC2CC2)C1 (configuration not stated) | -7.78
CC(C)[C@@H]1CN(C(=O)c2ccsc2)C[C@H]1C(=O)O | -6.74
Cc1cc(CN2CCC(C3CCN(CC(C)C)CC3)C2)[nH]n1 (configuration not stated) | -3.48
O=C(Cn1cccn1)N(CCO)CCSc1ccc(Cl)cc1 | -11.6
Cc1cc(C)c2c(NCc3nncn3C3CCCCC3)ncnc2n1 | -13.6
CC(C)c1nccn1C(C)C(=O)NC1CCOCC1 (configuration not stated) | 2.76
Cc1nccn1-c1ccc(N2CCC(N[C@H](C)C(C)C)CC2)cc1 | 0.757
CCNc1ncc(C(=O)N[C@H](C(N)=O)c2ccccc2)cn1 | 24
COCCNc1nc(C)nc2c1CCN(C[C@H]1CC[C@@H](N)CC1)CC2 | 44.2
O=C(NCC(O)c1cccc(F)c1)C1CCN(C2CCCCC2)CC1 (configuration not stated) | -16.4
CN(CCc1cn[nH]c1)Cc1nc(Cc2cccc(F)c2)no1 | 19
CCc1cc(N2CCN(c3cnccn3)CC2)n2nc(C)c(C)c2n1 | 10.7
COc1ccc(CCN2CC(c3nc(CSC)no3)CCC2=O)cc1 (configuration not stated) | -4.88
CC(=O)N1CCC2(CCCN2Cc2cnn(C)c2)CC1 | -10
CCn1nc(C)cc1C(=O)N1C[C@H]2CCC[C@@]2(COc2ccccn2)C1 | -7.77
Cc1cc(CN2C[C@@H]3COC[C@]3(CNC(=O)c3ccsc3)C2)no1 | -8.24
O=C(C1CCOCC1)N1C[C@H]2CCC[C@@]2(COc2ccccn2)C1 | -11.3
O=C(Nc1cnccn1)[C@@H]1C[C@H]2OCC[C@H]2N(Cc2ccsc2)C1 | -7.42

Structure (SMILES) | cytotoxicity at 70.5 h [%]
CN(C)C[C@]12COC[C@H]1CN(C(=O)Cc1ccc3c(c1)OCO3)C2 | -9.79
Cn1cc(CN2CCCC23CCN(C(=O)c2ccccn2)CC3)cn1 | 18.2
Cn1cc(CN2CCCC23CCN(C(=O)c2ccncc2)CC3)cn1 | 20.3
c1ccn(Cc2nnc3n2CCCN(Cc2ccoc2)C3)c1 | 6.46
O=C(N1CCCC1)N1CCC2(CCN(Cc3ccccn3)C2=O)C1 (configuration not stated) | 2.54
CN1CCC(c2nnc3ccc(C(=O)NC4CCCC4)cn23)C1 (configuration not stated) | 15
O=C(Cc1ccccc1)N1CCCC2(COCCN(CC3CC3)C2)C1 (configuration not stated) | -0.0192
c1cnc(N2CCC3(CN(CC4CCOC4)C3)C2)nc1 (configuration not stated) | 24.1
COCCN1C[C@@H]2[C@@H](OC)CCN(C(=O)Cc3ccccc3)[C@@H]2C1 | -1.17
Cc1ncoc1C(=O)N1C[C@H]2CCC[C@@]2(COCc2cccnc2)C1 | 3.21
Cc1oncc1C(=O)NCc1cc(=O)n2c(n1)CN(C(C)C)CCC2 | -4.07
CCCN1CCCn2c(nc(CNC(=O)c3cnoc3C)cc2=O)C1 | 16.5
O=C(c1ccsc1)N1C[C@H]2CCC[C@@]2(COCc2cccnc2)C1 | 22.5
c1cnc(N2CCCC3(CCN(CC4CCOC4)CC3)C2)nc1 (configuration not stated) | 19
O=c1cc(Cn2cncn2)nc2n1CCCN(Cc1ccc(F)cc1)C2 | 0.75
Cn1ccnc1C(=O)N1CCC2(CC1)CC(Oc1cccnc1)CO2 (configuration not stated) | -9.75
COCC1CN(CC2CC2)Cc2nn(CC3CC3)cc21 (configuration not stated) | 12.3
CN1CCOCC2(CCCN(C(=O)c3ccccc3F)C2)C1 (configuration not stated) | 13.4
CN1CC(=O)N(c2ccsc2)CC12CCN(C(=O)c1cccn1C)C2 (configuration not stated) | -5.46
CN1CC(=O)N(c2ccsc2)CC12CCN(C(=O)CC1CCCC1)C2 (configuration not stated) | -0.558
COCC1CC2(CCN(Cc3ccco3)CC2)CN1C(C)C (configuration not stated) | 6.8
O=C(NC[C@]12COC[C@H]1CN(Cc1cccnc1)C2)c1ccsc1 | 11.5

Structure (SMILES) | cytotoxicity at 70.5 h [%]
O=C1CC(c2ccncc2)C2(CCN(Cc3ccc(F)cc3)CC2)N1 (configuration not stated) | -9.81
CN(C)CCOCC1CN(Cc2ccoc2)Cc2nnn(C)c21 (configuration not stated) | -11.2
Cn1nnc2c1C(COCc1ccccn1)CN(Cc1ccoc1)C2 (configuration not stated) | -12.1
O=C1CC(c2ccncc2)C2(CCN(CCc3ccccc3)CC2)N1 (configuration not stated) | -6.87
CO[C@@H]1CC[C@H]2[C@H]1OCCN2Cc1ccccn1 | 18.3
O=C1COC2(CCN(CC3CCOCC3)CC2)CN1Cc1ccccn1 | -0.458
CCN(C)c1ncnc2c1CCN(Cc1ccc(F)cc1)CC2 | 19.9
Cc1nc(CN2CCO[C@H]3[C@@H](Oc4ccccn4)CC[C@@H]32)cs1 | 18.6
O=C(c1ccncc1)N1CCC2(CC1)CCN(Cc1ccccn1)C2=O | 15.2
c1ccc(CO[C@@H]2CC[C@H]3[C@H]2OCCN3Cc2ccsc2)nc1 | 8.96
Cc1noc(C)c1CN1CCO[C@H]2CN(Cc3cncn3C)C[C@H]21 | 19
Cc1noc(C)c1CN1CCO[C@H]2CN(Cc3ccc(F)cc3)C[C@H]21 | 0.623
c1cnc(N2CCC3(CCN(CC4CCOC4)CC3)CC2)nc1 (configuration not stated) | 1.98
CN1CC(=O)N(c2cccc(F)c2)CC12CCN(CC1CCOCC1)C2 (configuration not stated) | 5.35
Cc1ccc(N2CCC3(CCN(C(=O)c4ccccn4)CC3)CC2)nn1 | -5.97
CN1CCNC(=O)C12CCN(Cc1ccco1)CC2 | -8.79
COCC1CC2(CCN(Cc3ccncc3)CC2)CN1C(C)C (configuration not stated) | -7.56
CCN(C)c1ncnc2c1CCN(Cc1ccncc1)CC2 | -0.527
Cc1ccoc1C(=O)N1Cc2c(CN3CCCCC3)nn(C)c2C1 | 0.575
